Entries after “also recorded” stand apart in the source; their conditions may differ. Read-outs that look alike come from different tables or passages of the source.
Tests used:
[1] = in the presence of well-known permeation enhancers; cited from earlier work
[2] = tested on: non-diabetic male Wistar rats; test: Blood glucose levels after intrajejunal injection in fasted non-diabetic rats; format: in vivo, rat; conditions: for effect on blood glucose levels: 100 μL
Method: About 250 μL of blood was collected at regular intervals in order to determine the blood glucose level. The obtained values, plotted as mean percent change±standard error in blood glucose levels with respect to initial reading (n=3) versus time, are shown in FIG. 7.
About 250 μL of blood was collected at regular intervals in order to determine the blood glucose level. The obtained values, plotted as mean percent change±standard error in blood glucose levels with respect to initial reading (n=3) versus time, are shown in FIG. 8.
The obtained values, plotted as mean percent change±standard error in blood glucose levels with respect to initial reading (n=4) versus time, are shown in FIG. 9.

[3] = Physical form of choline-based ionic liquids at room temperature; format: physicochemical
Method: Several ionic liquids comprising choline as a cation and various anions were synthesized. […] For anions not miscible with the aqueous choline bicarbonate solution, a co-solvent, such as ethanol, was added until a homogenous mixture formed. The mixture was stirred at room temperature until CO2 evolution ceased. Solvent was removed by rotary evaporation at 60° C. for 20 minutes, and each product was dried in a vacuum oven for 48 hours at 60° C.

[4] = tested on: non-diabetic male Wistar rats; test: 30-day daily oral gavage safety study
Method: Adult non-diabetic male Wistar rats were dosed daily for 30 days via oral gavage with either 25 or 100 uL Choline-Cinnamic Acid 1:1.5. Two placebo groups received either 25 or 100 uL saline. Animals were observed daily for general health and weight recorded. On day 31, all animals were euthanized, and tissue, blood and plasma samples collected for analysis.

[5] = male, Wistar, rat, in vivo
Method: (§1) Adult non-diabetic male Wistar rats were fasted overnight but given free access to water and subsequently dosed via intrajejunal injection with liraglutide and choline-hydrocinnamic acid. A fasting control group was dosed with a saline solution via intrajejunal injection. About 250 L of blood was collected at hourly intervals in order to determine the liraglutide serum concentration.
(§2) Adult non-diabetic male Wistar rats were fasted overnight but given free access to water and subsequently dosed via intrajejunal injection with liraglutide and one of various choline-based ionic liquids.

[6] = Liraglutide serum concentration after intrajejunal injection of liraglutide with choline-based ionic liquid; conditions: for Peak 5-Hour Liraglutide Concentration: non-diabetic rats
Method: as §1, §2

[7] = tested on: non-diabetic male Wistar rats; test: Glucose excretion in urine after intrajejunal injection; format: in vivo, rat; conditions: intrajejunal injection at varying doses, urine from bladder 1.5 hours post-injection
Method: At 1.5 hours post-injection, urine was sampled from the bladder to determine glucose concentration. The obtained glucose concentration values, plotted as percent change in blood glucose levels with respect to initial reading versus dose level and change in glucose concentration in the urine collected from the bladder versus dose level (n=1), are shown in FIG. 13.

[8] = tested on: Streptozocin-induced diabetic male Wistar rats; test: Blood glucose levels after oral liquid gavage in rat model of Type 1 diabetes; format: in vivo; conditions: Type 1 diabetes model rats
Method: About 250 μL of blood was collected at regular intervals in order to determine the blood glucose level. The obtained values, plotted as mean percent change±standard error in blood glucose levels with respect to initial reading (n=4) versus time, are shown in FIG. 11.

[9] = tested on: non-diabetic male Wistar rats; test: Blood glucose levels after subcutaneous injection or liquid gavage in fasted non-diabetic rats; format: in vivo, rat
Method: A fasting control group was dosed orally with a saline solution. About 250 μL of blood was collected at regular intervals in order to determine the blood glucose level. The obtained values, plotted as mean percent change±standard error in blood glucose levels with respect to initial reading (n=4) versus time, are shown in FIG. 10. […] About 250 μL of blood was collected at regular intervals in order to determine the blood glucose level. The obtained values, plotted as mean percent change±standard error in blood glucose levels with respect to initial reading (n=4) versus time, are shown in FIG. 11.

[10] = tested on: Streptozotocin-induced diabetic male Wistar rats; test: Plasma insulin after administration in rat model of Type 1 diabetes; format: in vivo; conditions: subcutaneous injection, oral liquid gavage or jejunum catheter
Method: A fasting control group was not treated. About 250 μL of blood was collected at regular intervals in order to determine the insulin serum concentration.

[11] = cation:anion 1:1, room temperature
[12] = cation:anion 1:2, room temperature

Compound: CCCCCCCCCCCCCCCC(=O)N[C@@H](CCC(=O)NCCCC[C@H](NC(=O)[C@H](C)NC(=O)[C@H](C)NC(=O)[C@H](CCC(N)=O)NC(=O)CNC(=O)[C@H](CCC(=O)O)NC(=O)[C@H](CC(C)C)NC(=O)[C@H](Cc1ccc(O)cc1)NC(=O)[C@H](CO)NC(=O)[C@H](CO)NC(=O)[C@@H](NC(=O)[C@H](CC(=O)O)NC(=O)[C@H](CO)NC(=O)[C@@H](NC(=O)[C@H](Cc1ccccc1)NC(=O)[C@@H](NC(=O)CNC(=O)[C@H](CCC(=O)O)NC(=O)[C@H](C)NC(=O)[C@@H](N)Cc1cnc[nH]1)[C@@H](C)O)[C@@H](C)O)C(C)C)C(=O)N[C@@H](CCC(=O)O)C(=O)N[C@@H](Cc1ccccc1)C(=O)N[C@H](C(=O)N[C@@H](C)C(=O)N[C@@H](Cc1c[nH]c2ccccc12)C(=O)N[C@@H](CC(C)C)C(=O)N[C@H](C(=O)N[C@@H](CCCNC(=N)N)C(=O)NCC(=O)N[C@@H](CCCNC(=N)N)C(=O)NCC(=O)O)C(C)C)[C@@H](C)CC)C(=O)O [liraglutide]
- absorption of liraglutide [1]: only minute absorption

Compound: CCCCCCCC(=O)O [Octanoic Acid]
- effect on blood glucose levels [2]: neither choline-octanoic acid nor choline-octenoic acid decreased blood glucose levels
- Physical Form (Ratios Listed as Cation:Anion) [3, 11]: Liquid
- Physical Form (Ratios Listed as Cation:Anion) [3, 12]: Solid

Compound: O=C(O)C=Cc1ccccc1 [Cinnamic Acid]
- Physical Form (Ratios Listed as Cation:Anion) [3, 11]: Liquid at 1:1, 1:1.5, 1:2
- Physical Form (Ratios Listed as Cation:Anion) ([3]; cation:anion 1:1.5, room temperature): Liquid at 1:1, 1:1.5, 1:2
- Physical Form (Ratios Listed as Cation:Anion) [3, 12]: Liquid at 1:1, 1:1.5, 1:2
- appearance and physical form ([3]; room temperature, ratio as in label): viscous yellow liquids
- plasma indicators of organ toxicity vs placebo ([4]; 25 or 100 uL daily oral gavage for 30 days, rats): not statistically significantly different
- IHC staining of tight junction proteins Claudin-1 and Occludin of GI tract tissues vs placebo ([4]; rat, in vivo, po): no difference
- blood cell counts vs placebo ([4]; rat, in vivo, po): not statistically significantly different
- histological examination (H&E) of organs and GI tract tissues vs saline placebo ([4]; rat, in vivo, po): no significant difference

Compound: CCCCC/C=C\C/C=C\CCCCCCCC(=O)O [Linoleic Acid]
- Physical Form (Ratios Listed as Cation:Anion) [3, 11]: Solid
- Physical Form (Ratios Listed as Cation:Anion) [3, 12]: Liquid
- Peak 5-Hour Liraglutide Concentration [5]: 44 ng/mL
- fold improvement of liraglutide concentration over choline-citronellic acid [5]: about 10 fold

Compound: Hydrocinnamic Acid (3-Phenylpropionic Acid)
- Physical Form (Ratios Listed as Cation:Anion) [3, 11]: Liquid at 1:1, 1:2
- Physical Form (Ratios Listed as Cation:Anion) [3, 12]: Liquid at 1:1, 1:2
- blood concentration of liraglutide relative to those reported in the literature ([6]; liraglutide with choline-hydrocinnamic acid vs Buckley et al.): approximately 4,400 fold
- liraglutide serum concentration ([6]; liraglutide with choline-hydrocinnamic acid, intrajejunal injection, rats): surprisingly high serum concentration
- Peak 5-Hour Liraglutide Concentration ([6]; liraglutide with the ionic liquid, intrajejunal injection, listed as Choline-Hydrocinnamic acid): 2086 ng/mL
- Peak 5-Hour Liraglutide Concentration ([6]; liraglutide with the ionic liquid, intrajejunal injection, listed as choline-hydrocinnamic acid): greater than 2000 ng/mL
- fold improvement of liraglutide concentration over choline-citronellic acid ([6]; liraglutide with the ionic liquid, intrajejunal injection, rats): 500 fold

Compound: CC(C)=CCCC(C)CC(=O)O (stereo not shown) [Citronellic Acid]
- glucose concentration in the urine [7]: increasing glucose concentration in the urine
- effect on blood glucose level ([2]; 10, 20, 50 and 100 μL): dropped in a dose-dependent manner
- blood glucose levels, % of starting levels ([2]; 50 μL dose): about 50%
- effect on blood glucose levels [2]: pronounced decrease in blood glucose levels
- drop in blood glucose level from baseline ([2]; 100 μL dose): about 70%
- Physical Form (Ratios Listed as Cation:Anion) [3, 11]: Liquid at 2:1, 1:1, 1:2
- Physical Form (Ratios Listed as Cation:Anion) [3, 12]: Liquid at 2:1, 1:1, 1:2
- Physical Form (Ratios Listed as Cation:Anion) ([3]; cation:anion 2:1, room temperature): Liquid at 2:1, 1:1, 1:2
- effect on blood glucose levels [8]: continued to drop
- effect on blood glucose levels ([9]; oral liquid gavage, listed as choline-citronellic acid): reduced blood glucose levels; also recorded: dropped and recovered slowly with time
- effect on blood glucose levels ([9]; subcutaneous injection): reduced blood glucose levels
- insulin secretion (plasma insulin concentration) [10]: Stimulation of insulin secretion was observed

Compound: Choline-Octenoic acid
- effect on blood glucose levels [2]: neither choline-octanoic acid nor choline-octenoic acid decreased blood glucose levels
- Peak 5-Hour Liraglutide Concentration ([6]; liraglutide with the ionic liquid, intrajejunal injection): 201 ng/mL
